Where a name gives a salt, the structure may show the parent alone.
Target: T1, His-PtcC (Ptc C-terminal tail) (Drosophila melanogaster, UniProt P18502)
T1 sequence (P18502 1105-1286): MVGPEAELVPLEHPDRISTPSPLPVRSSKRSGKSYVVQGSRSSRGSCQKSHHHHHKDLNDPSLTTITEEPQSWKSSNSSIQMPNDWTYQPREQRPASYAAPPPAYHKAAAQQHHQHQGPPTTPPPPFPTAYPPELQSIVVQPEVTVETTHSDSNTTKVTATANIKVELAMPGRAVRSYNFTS
Experiment: solid-phase lipid dot blot
Format: binding
Conditions: 2 ul of 50 uM lipid on PVDF; 1 ug/ml protein in PBS; 4 C overnight

`CCCCCCCCCCCCCCCCCC(=O)OC[C@H](COP(=O)(O)O)OC(=O)CCCCCCCCCCCCCCCCC` [DSPA, 1,2-Distearoyl-sn-glycero-3-phosphate (sodium salt)] was tested, and the “solid-phase lipid dot blot” value was “His-PtcC interacted only with DSPA and DPPA, both of which are saturated forms of PA”.

— publication PMC10661859 (Science signaling, 2023)
